Test results published in US4524146A, “Certain -2-heterocycle substituted pyrazoloquinolines” (Ciba-Geigy Corporation, priority 1982, dated 1985).

What was measured:
benzodiazepine receptor [1] = test: in vitro benzodiazepine receptor binding assay (inhibition of specific binding of 2 nM tritiated diazepam); settings: membranes from rat fore-brain, 0°-5°, 30 minutes, pH7.5
Procedure: The benzodiazepine receptor binding properties indicative of the nervous system regulatory activity of said new compounds are determined in the receptor binding assay in vitro, e.g. as described in Nature 266, 732 (1977) or Proc. Nat. Acad. Sci. USA 74, 3805 (1977). Diazepam binds specifically and with high affinity to crude synaptosomal membrane preparations from rat fore-brain. This binding is inhibited by other anxiolytic compounds. When tritiated diazepem is used, the interaction of other drugs with said receptor can be readily assessed thus: membranes from rat fore-brain are incubated at 0°-5° for 30 minutes with 2 nM tritiated diazepam and various concentrations of the test substance in a buffer medium maintained at pH7.5. Solutions of the various concentrations of test substances are prepared by dilution of a 4.2 mM stock solution in dimethylacetamide-ethanol (1:10) with 50 mM pH7.5 Tris-HCl buffer. The membranes, containing the receptors with various amounts of tritiated diazepam, are filtered onto glass fiber filters, which are then analyzed in a liquid scintillation counter. The concentration of the compounds of this invention, required to inhibit the specific binding of 2 nM of tritiated diazepam by 50%, i.e. the IC50, is determined graphically.

benzodiazepine receptor [2] = test: in vivo benzodiazepine receptor binding (3H-flunitrazepam); design: species or system mice or rats; settings: dose of about 30 mg/kg i.p.
Procedure: In vivo benzodiazepine receptor binding is determined essentially as described in Eur. J. Pharmacol. 48, 213 (1978) and Nature 275, 551 (1978).
Test compounds in a corn starch vehicle are administered orally or intraperitioneally to mice or rats. Thirty minutes later, 3H-flunitrazepam(2 nmoles/Kg in saline) is injected into the tail vein, and the animals are sacrificed 20 minutes after injection of the flunitrazepam. The brains are then assayed by determining radioactivity in a liquid scintillation counter for binding of the radioligand to the receptors. A decrease in the binding of 3H-flimotrazepam in the drug-treated animals (as compared with the binding observed in animals treated with vehicle alone) is indicative of benzodiazepine receptor binding by the test compound.

## O=c1c2c[nH]c3ccccc3c-2nn1-c1ncccn1 [Example 1, 2-(2-pyrimidyl)-pyrazolo[4,3-c]quinolin-3(5H)-one]
Benzodiazepine receptor [1]
  IC50: ~6 nM

## O=c1c2c[nH]c3ccc(F)cc3c-2nn1-c1ncccn1 [Example 2, 8-fluoro-2-(2-pyrimidyl)-pyrazolo[4,3-c]quinolin-3(5H)-one]
Benzodiazepine receptor [1]
  IC50: ~2 nM

## O=c1c2c[nH]c3ccccc3c-2nn1-c1nccs1 [Example 4, 2-(2-thiazolyl)-pyrazolo[4,3-c]quinolin-3(5H)-one]
Benzodiazepine receptor [2]
  inhibition of flunitrazepam binding in vivo: inhibits flunitrazepam binding in vivo
Benzodiazepine receptor [1]
  IC50: ~0.3 nM
